From patent US7557133B2, “Caspase inhibitors containing isoxazoline ring” (LG Life Sciences Ltd., priority 2003, dated 2009)

What was measured:
caspase-1 = molecular target: T1, caspase-1 (Homo sapiens, UniProt P29466); experiment: Caspase-1 inhibitory effect (fluorescent substrate AcYVAD-AFC); format: biochemical; conditions: pH 7.5; 25° C., 50 μM AcYVAD-AFC, 10 nM caspase-1; read-out: Caspase-1 Kobs/[I] (converted)
T1 construct: p10 and p20 subunits (Thornberry, N. A. et al, Nature, 1992, 356, 768) were expressed in E. coli; made in house; host or cells: E. coli
T1 sequence (P29466 120-297 limits assumed): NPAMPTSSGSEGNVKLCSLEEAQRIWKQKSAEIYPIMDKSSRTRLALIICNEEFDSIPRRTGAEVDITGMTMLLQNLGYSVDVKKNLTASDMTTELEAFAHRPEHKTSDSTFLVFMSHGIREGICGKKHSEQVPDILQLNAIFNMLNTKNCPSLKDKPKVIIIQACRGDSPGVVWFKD
T1 sequence (P29466 317-404 limits assumed): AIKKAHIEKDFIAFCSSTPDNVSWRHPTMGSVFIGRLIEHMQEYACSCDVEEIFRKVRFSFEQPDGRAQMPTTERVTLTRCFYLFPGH
Protocol: (§1) Caspase-1 and caspase-8 known as cysteine proteases in the form of α2β2 were expressed, purified, and activated by modifying a method known in Thornberry, N. A. et al, Nature, 1992, 356, 768. Thornberry, N. A. Methods in Enzymology, 1994, 244, 615. Walker, N. P. C. et al. Cell, 1994, 78, 343, and caspase-9 was also purified by a similar method, and the inhibitory activity against them was tested. Briefly describing, p10 and p20 subunits (Thornberry, N. A. et al, Nature, 1992, 356, 768) were expressed in E. coli and purified by nickel column and anionic exchange chromatography to give caspase-1, caspase-8 and caspase-9. The fluorescent substrate AcYVAD-AFC for thus obtained caspase-1, AcDEVD-AFC for caspase-8, and AcLEHD-AFC for caspase-9 were used for determining specific activity of the synthesized inhibitors. The enzyme reaction was carried out at 25° C. with various concentrations of the inhibitors in a buffer solution containing 50 mM HEPES(pH 7.50), 10% (w/v) sucrose, 0.1% (w/v) CHAPS, 100 mM NaCl, 1 mM EDTA, and 10 mM DTT in the presence of 50 μM AcYVAD-AFC for 10 nM caspase-1, 50 μM AcDEVD-AFC for 2.1 nM caspase-8, and 150 μM AcLEHD-AFC for 200 nM caspase-9. The inhibitory constants Ki and Kobs of the inhibitors were determined by measuring the reaction velocity with the time lapse using a fluorescent spectrometer and by obtaining the initial rate constant. Ki was calculated from the Lineweaver Burk Plot, and Kobs from the following Equation 1. Kobs=−ln(1−At/Aoo)/t Equation 1
At means cleavate rate (%) at time t, and
Aoo means the maximum cleavage rate (%).
Spectra MAX GeminiXS Fluorescent Spectrometer of Molecular Device Co. was used at the excitation wavelength of 405 nm and the emission wavelength of […].

caspase-8 = molecular target: T2, caspase-8 (Homo sapiens, UniProt Q14790); experiment: Caspase-8 inhibitory effect (fluorescent substrate AcDEVD-AFC); format: biochemical
T2 construct: p10 and p20 subunits (Thornberry, N. A. et al, Nature, 1992, 356, 768) were expressed in E. coli; made in house; host or cells: E. coli
Outline: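 E. coli–expressed p10/p20 caspase-8, 2.1 nM, with 50 μM Ac-DEVD-AFC at 25 °C in 50 mM HEPES pH 7.50, sucrose, CHAPS, NaCl, EDTA, 10 mM DTT over various inhibitor concentrations. Initial rates by fluorescence (ex 405 / em 505); Ki from Lineweaver-Burk plot, Kobs from time-course cleavage equation.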

caspase-9 = molecular target: T3, caspase-9 (Homo sapiens, UniProt P55211); experiment: Caspase-9 inhibitory effect (fluorescent substrate AcLEHD-AFC); format: biochemical; conditions: pH 7.5; 25° C., 150 μM AcLEHD-AFC, 200 nM caspase-9; read-out: Caspase-9 Kobs/[I] (converted)
T3 construct: p10 and p20 subunits (Thornberry, N. A. et al, Nature, 1992, 356, 768) were expressed in E. coli; made in house; host or cells: E. coli
T3 sequence (P55211 1-315 limits assumed): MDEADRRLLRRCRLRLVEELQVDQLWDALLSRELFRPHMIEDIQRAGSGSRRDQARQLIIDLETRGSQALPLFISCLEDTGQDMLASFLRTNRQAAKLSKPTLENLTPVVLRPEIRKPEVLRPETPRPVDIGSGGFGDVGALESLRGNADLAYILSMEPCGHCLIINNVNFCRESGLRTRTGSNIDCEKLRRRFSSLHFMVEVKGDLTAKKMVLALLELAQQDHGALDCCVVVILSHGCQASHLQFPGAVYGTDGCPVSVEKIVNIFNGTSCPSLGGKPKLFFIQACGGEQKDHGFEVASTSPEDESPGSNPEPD
T3 sequence (P55211 331-416 limits assumed): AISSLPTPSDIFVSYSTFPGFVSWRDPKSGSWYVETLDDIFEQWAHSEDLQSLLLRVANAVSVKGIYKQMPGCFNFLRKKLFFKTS
Protocol: as §1, with “The enzyme reaction was carried out at 25° C. with various concentrations of the inhibitors in a buffer solution containing 50 mM HEPES(pH 7.50), 10% (w/v) sucrose, 0.1% (w/v) CHAPS, 100 mM NaCl, 1 mM EDTA, and 10 mM DTT in the presence of 50 μM AcYVAD-AFC for 10 nM caspase-1, 50 μM AcDEVD-AFC for 2.1 nM caspase-8, and 150 μM AcLEHD-AFC for 200 nM caspase-9.” left out, “Kobs=−ln(1−At/Aoo)/t Equation 1” left out

[1] = test system: Jurkat cell (ATCC TIB-152); experiment: Jurkat cell apoptosis by Fas antibody, WST-1 method; format: cell-based; conditions: for IC50: apoptosis using Fas antibody, WST-1
Outline: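 Jurkat cells (ATCC TIB-152) induced to apoptosis with Fas antibody in the presence of inhibitor. Viable cells quantified by WST-1 colour change, absorbance at 440 nm.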

hepatic cell apoptosis = experiment: Inhibitory effect against apoptosis during the bile stagnation in SD rats (TUNEL staining); format: in vivo, rat; conditions: for TUNEL positive cells/field: BDL rats
Protocol: Male Spargue-Dawley rats (6 weeks, Korea Biolink) were kept under the conditions of 22 °C, 55% of relative humidity, and light-darkness cycle of 12 hours. Food and water were supplied ad libitum. For the ligation of biliary duct, the rats were anesthetized by inhalation of 1% halothane, abdomen of the rats were cut open, the distal and proximal biliary ducts were ligated, the part between the ligation sites were cut, 2 ml of saline was injected, and sutured.
Test compound (Iii) was orally administered in a dosage of 3 mg/kg or 10 mg/kg twice a day. That is, the compound was dissolved in a cosolvent (PEG400:ethanol:Tween80=15:7.5:2.5), diluted with phosphate buffer (pH 7.4) by five times, and administered. To the control group was administered the solution without the test compound. The administration was made for 1 week after 1 week from the ligation of biliary duct.
The test compound (Iii) was administered to the SD rats whose biliary ducts were ligated according to the procedure as Step 1 of Experiment 3. After 2 weeks from the operation, the rats were sacrificed. The livers were fixed by 10% neutral formalin and a paraffin section of 5 μm thickness was prepared. TUNEL staining was carried out using ApopTag Peroxidase In Situ Apoptosis Detection kit (Chemicon) according to the manufacturer's instruction. More than 10 sites of the TUNEL stained liver tissue were photographed in 200 magnifications without any overlap, of which result was shown in FIG. 2. The number of cells suffering apoptosis in each test group was counted and represented in the following Table 2. In the following table, the Sham operation means the case where the biliary duct was exposed but not ligated, and the BDL operation means the case where only the vehicle was administered after the ligation of biliary duct.

T2 sequence (Q14790 217-374 limits assumed, species assumed): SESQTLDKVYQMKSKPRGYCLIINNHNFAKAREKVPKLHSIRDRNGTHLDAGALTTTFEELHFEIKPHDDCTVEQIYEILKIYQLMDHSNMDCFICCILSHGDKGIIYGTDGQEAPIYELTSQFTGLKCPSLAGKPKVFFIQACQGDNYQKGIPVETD
T2 sequence (Q14790 385-479 limits assumed, species assumed): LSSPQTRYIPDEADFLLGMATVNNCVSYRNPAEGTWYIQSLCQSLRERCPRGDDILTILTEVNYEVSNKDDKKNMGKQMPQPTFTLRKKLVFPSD

## CC(C)[C@@]1(C(=O)NC(CC(=O)O)C(=O)CF)CC(c2nccc3ccccc23)=NO1 (stereo partly drawn) [Iii, 5-Fluoro-3-({[(5R)-5-isopropyl-3-(1-isoquinolinyl)-4,5-dihydro-5-isoxazolyl]carbonyl}amino)-4-oxopentanoic acid]
caspase-1
  kinact/KI: 18300 M⁻¹ s⁻¹
caspase-8
  increased inhibitory activity against caspase-8 compared with LB84068MP: ≥ 10 times
caspase-8; pH 7.5, 25° C., 50 μM AcDEVD-AFC, 2.1 nM caspase-8, read-out: Caspase-8 Kobs/[I] (converted)
  kinact/KI: 217000 M⁻¹ s⁻¹
caspase-9
  kinact/KI: 3330 M⁻¹ s⁻¹
[1]
  increased inhibitory activity against Jurkat cell compared with LB84068MP: ≥ 10 times
  IC50: ≤ 0.1 µM
[1]; Homo sapiens, Jurkat
  IC50: 0.1 µM
Hepatic cell apoptosis; 3 mg/kg orally twice a day for 1 week
  TUNEL positive cells/field: 4.12 ± 1.3 TUNEL positive cells/field
Hepatic cell apoptosis; 10 mg/kg orally twice a day for 1 week
  TUNEL positive cells/field: 5.66 ± 1.34 TUNEL positive cells/field
Hepatic cell apoptosis; bile stagnation model, rats
  inhibition of apoptosis (TUNEL staining): 75%
